Laboratory results published in patent US20150032088A1, “SUSTAINED DRUG DELIVERY FROM SOLID STATE COMPOSITIONS WITH NANOCHANNEL MEMBRANES” (priority 2012, published 2015).

Experiments:
Assay type in all cases: physicochemical
[1] = Levothyroxine release from capsule with 3 nm nanochannel membrane into sink solution; conditions: powder, 2 separate experiments (019, 040)
Source text: The implantable capsule comprising one or more nanochannel membranes were fabricated according to US 2010/0152699 and PCT/US2009/064376. The nanochannel membranes present nanochannels ranging in sizes between 3 and 50 nm. The nanochannel membranes (FIG. 2A) were produced in 29 configurations presenting different constant rates of delivery. Custom diffusion devices (FIG. 2B) were utilized for measuring the amount of drug released from nanochannel membrane devices using UV-spectroscopy, as described in Grattoni et al., Lab on a Chip 10:3074-3083 (2010) and Grattoni et al., Anal. Chem. 83:3096-3103 (2011). A linear standard curve relating UV absorbance and concentration of diffused substance was obtained at a wavelength of 250 nm and used for the release test of testosterone. A linear standard curve relating UV absorbance and concentration of diffused substance was obtained at a wavelength of 240 nm and used for the release test of levothyroxine. […]
PEEK capsules were loaded with 852 and 875 μL of Millipore water and 17.1 mg of powder. […] For the release measurement, a UV-Vis absorbance versus concentration standard curve was prepared. The absorbance was measured at 240 nm. The sampling method consisted of removing 1.5 mL of the sink solution, measuring the absorbance, and returning the sample to the bottle. […]

[2] = Preliminary release of testosterone from solid pellets through 3 nm nanochannel membrane (UV absorbance)
Experimental: In a preliminary experiment, the nanochannel implant was loaded with degradable testosterone pellets immersed in DI water. The amount of DI water inserted in the capsule was approximately 700 μL.

[3] = First long-term testosterone release experiment, capsule with 3 nm membrane into sink solution; conditions: pellet formulation (Testopel), 3 nm nanochannel membrane, 37° C.
Experimental: In the first long-term testosterone release experiment, two testosterone formulations, powder and pellet (Testopel), were used. The release experiment was performed from a capsule into a bottle containing the recipient sink solution. A 3 nm membrane was used for each testosterone formulation and assembled within the capsule. Each nanochannel presented a width of 5 μm and a length of 3 μm. The nanochannel membrane was fabricated by NanoMedical Systems, Inc., Austin Tex. by using the fabrication methods as described in PCT/US2009/064376. In general, the nanochannel membrane was fabricated with microfabrication techniques by employing a sacrificial layer technique, to obtain precise nanochannels parallel to the membrane surface and connected to the membrane inlet and outlet by means of sets of microchannels.
The total number of nanochannel per membrane is equal to 118496. Testosterone powder (21.2 mg) was weighted into the titanium capsule, which was filled with 791 μL of Millipore water. […] For the release measurement of both testosterone conformations, a UV-Vis absorbance versus concentration standard curve was prepared. The testosterone solutions were sampled every other day and the UV absorbance was measured at a wavelength of 250 nm. The sampling method consisted of removing 1.5 mL of the sink solution, measuring the absorbance, and returning the sample to the bottle. […]

[4] = Second long-term testosterone release experiment, capsule with 40 nm membrane into sink solution; conditions: pellet formulation (Testopel), 40 nm nanochannel membrane
Source text: The second long-term testosterone release experiment was run with the same setup and measurement method. In this case, 40 nm membranes with 8 μm wide and 1 μm long nanochannels were used for both testosterone formulations. The nanochannel membrane was fabricated by NanoMedical Systems, Inc., Austin Tex. by using the fabrication methods as described in PCT/US2009/064376. In general, the nanochannel membrane was fabricated with microfabrication techniques by employing a sacrificial layer technique, to obtain precise nanochannels parallel to the membrane surface and connected to the membrane inlet and outlet by means of sets of microchannels.
Testosterone powder and pellet (26 and 24.7 mg, respectively) were weighted into PEEK capsules. Both capsules were filled with 900 μL and dropped into 90 mL of Millipore water. The sampling measurement was performed every other day with the same method described above.

Structure (SMILES): N[C@@H](Cc1cc(I)c(Oc2cc(I)c(O)c(I)c2)c(I)c1)C(=O)O.O.O.O.O.O.[Na] [levothyroxine, L-thyroxine sodium pentahydrate]
- duration of continuous and constant release of levothyroxine [1]: 17 days
- approximate daily release rate of levothyroxine ([1]; 37° C.): ~500 µg/day

Structure (SMILES): C[C@]12CC[C@H]3[C@@H](CCC4=CC(=O)CC[C@@]43C)[C@@H]1CC[C@@H]2O [testosterone]
- duration of constant release of testosterone ([2]; solid pellets): 13 days
- release rate of testosterone ([2]; solid pellets (24 mg testosterone) in DI water): 5 µg/day
- duration of constant (linear) delivery of testosterone [3]: over 180 days
- duration of constant (linear) delivery of testosterone [4]: over 160 days
